Test results published in article PMC6935304 (International Journal of Nanomedicine, 2019).
Read-outs that look alike come from different tables or passages of the source.

How the values were obtained:
[1] = tested on: plasma proteins; details: rat; cited from earlier work
[2] = tested on: plasma proteins; details: human; cited from earlier work
[3] = tested on: plasma proteins; details: dog; cited from earlier work
[4] = In vitro drug release by dialysis against PBS, HPLC; type: physicochemical; details: room temperature
[5] = tested on: CSE; assay: Immunoblot of CSE expression in hearts of heart failure rats; type: in vivo; details: rat heart, 6 weeks after myocardial infarction

S-propargyl-cysteine [ZYZ-802]
Binding rate to plasma proteins [1]: very low | Binding rate to plasma proteins [2]: very low | Binding rate to plasma proteins [3]: very low | Time to release from the dialysis tubing [4]: ≤ 30 min | CSE expression relative to HF group or DP-LP group [5]: 1.6 times
